This is an account of results in patent US20250201957A1, “SEPARATION RECOVERY METHOD OF METAL IONS AND ACIDIC METAL EXTRACTANT” (FUJIFILM Corporation, priority 2022, published 2025).

One series can be described thus: pKa of metal extractant by neutralization titration. Type of series: physicochemical.
Details: not given
The text has this: The acidic metal extractant includes two or more coordinating functional groups, and at least one of the coordinating functional groups includes a carboxy group or each of acidic coordinating functional groups where one of R^C's represents a hydrogen atom. In the present invention, the acidic metal extractant is an acidic metal extractant for dissociating hydrogen ions (H^+) and can be defined by an acid dissociation constant pKa. For example, an acidic metal extractant having pkA of 0.1 to 12 is preferable, an acidic metal extractant having pkA of 0.5 to 12 is more preferable, and an acidic metal extractant having pkA of 1 to 8 is still more preferable. In the present invention, the pKa is a value measured by neutralization titration.
Regarding the synthesized or prepared acidic metal extractant, the molecular weight and the pKa calculated using the above-described method are shown in Table 1-2.
On to `CCCCC(CC)COP(=O)(CP(=O)(OCC)OCC(CC)CCCC)OCC` (stereo not shown) [E-7], for which the pKa result is “None”.
“Versatic acid 10 [VA-10, reference compound]” had a pKa of 7.9.

Still in this series, the particulars now being: read-out: pKa.
Regarding `CCCCC(CC)COP(=O)(O)CCCP(=O)(O)OCC(CC)CCCC` (stereo not shown) [E-1], the pKa was 1.1.
In the case of `CCCCC(CC)COP(=O)(O)CP(=O)(O)OCC(CC)CCCC` (stereo not shown) [E-2], the pKa stood at 0.8.
Turning to `CCCCC(CC)COP(=O)(O)CP(=O)(OCC)OCC(CC)CCCC` (stereo not shown) [E-3], the pKa is 2.1.
Take `CCCCC(CC)CC(CC(CC)CCCC)(C(=O)O)C(=O)O` (stereo not shown) [E-4]: the pKa worked out at 6.5.
Turning to `CCCCC(CC)COP(=O)(O)CCP(=O)(O)OCC(CC)CCCC` (stereo not shown) [E-5], the pKa amounted to 0.9.
On to `CCCCCCCCOP(=S)(S)CP(=S)(S)OCCCCCCCC` (stereo not shown) [E-6], for which the pKa is 0.3.
Take `CCCCC(CC)COP(=O)(O)C(C)(O)P(=O)(O)OCC(CC)CCCC` (stereo not shown) [E-8]: the pKa turned out to be 1.1.
As to `CCCCC(CC)COP(=O)(O)CC(CC)CCCC` (stereo not shown) [PC-88A, mono-2-ethylhexyl (2-Ethylhexyl)phosphonate, reference compound], the pKa amounted to 4.6.

The term pKa denotes the pH at which an ionisable group is half protonated.
